{"source": "patent US10131652B2", "about": "“Pyrimidinyloxy benzene derivatives as herbicides” (E. I. DU PONT DE NEMOURS AND COMPANY, priority 2014, dated 2018)", "format_in_all_cases": "in vivo", "key": {"[1]": {"tested_on": "chickweed (common chickweed, Stellaria media)", "experiment": "Test D postemergence plant response", "conditions": "Stellaria media, post-emergence", "summary_of_the_method": "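Postemergence spray on plants 2–18 cm tall (1- to 4-leaf stage), grown in pots of peat/vermiculite medium. Plants were kept in a greenhouse for 13–15 days, then visually rated against untreated controls on a 0 (no effect) to 100 (complete control) scale.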"}, "[2]": {"tested_on": "yellow nutsedge (Cyperus esculentus)", "experiment": "Test D pre-/postemergence plant response", "conditions": "Cyperus; for pest or weed control at 31 g/ha: 31 g ai/ha; for pest or weed control at 62 g/ha: 62 g ai/ha; for pest or weed control at 125 g/ha: 125 g ai/ha", "summary_of_the_method": "(§1)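 Plants are held in a greenhouse 13 to 15 days after spraying, then injury is rated by eye relative to controls on a 0 to 100 scale. Treatments are preemergence on freshly sown loam/sand pots or postemergence at 1- to 4-leaf stage in peat-based medium; surfactant-containing solvent formulation.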"}, "[3]": {"tested_on": "barnyardgrass (Echinochloa crus-galli)", "experiment": "Test D pre-/postemergence plant response", "conditions": "Echinochloa crus-galli; for pest or weed control at 16 g/ha: 16 g ai/ha; for pest or weed control at 31 g/ha: 31 g ai/ha; for pest or weed control at 62 g/ha: 62 g ai/ha; for pest or weed control at 125 g/ha: 125 g ai/ha", "summary_of_the_method": "as §1"}, "[4]": {"tested_on": "Italian ryegrass (Lolium multiflorum)", "experiment": "Test D pre-/postemergence plant response", "conditions": "Lolium multiflorum; for pest or weed control at 31 g/ha: 31 g ai/ha; for pest or weed control at 62 g/ha: 62 g ai/ha; for pest or weed control at 125 g/ha: 125 g ai/ha", "summary_of_the_method": "as §1"}, "[5]": {"tested_on": "pigweed (Amaranthus retroflexus)", "experiment": "Test D pre-/postemergence plant response", "conditions": "Amaranthus retroflexus; for pest or weed control at 31 g/ha: 31 g ai/ha; for pest or weed control at 62 g/ha: 62 g ai/ha; for pest or weed control at 125 g/ha: 125 g ai/ha", "summary_of_the_method": "as §1"}, "[6]": {"tested_on": "soybean (Glycine max)", "experiment": "Test D pre-/postemergence plant response", "conditions": "Glycine max; for plant injury at 31 g/ha: 31 g ai/ha; for plant injury at 62 g/ha: 62 g ai/ha; for plant injury at 125 g/ha: 125 g ai/ha", "summary_of_the_method": "as §1"}, "[7]": {"tested_on": "waterhemp (common waterhemp, Amaranthus rudis)", "experiment": "Test D pre-/postemergence plant response", "conditions": "Amaranthus tuberculatus; for pest or weed control at 125 g/ha: 125 g ai/ha", "summary_of_the_method": "as §1"}, "[8]": {"conditions": "post-emergence, Postemergence, scale 0 to 100, 0 no effect, 100 complete control, read-out: Plant response rating, Nutsedge, Yellow"}, "[9]": {"conditions": "pre-emergence, Preemergence, scale 0 to 100 (0 no effect, 100 complete control), read-out: Plant response rating, Nutsedge, Yellow"}, "[10]": {"conditions": "post-emergence, Postemergence, scale 0 to 100 (0 no effect, 100 complete control), read-out: Barnyardgrass plant response rating"}, "[11]": {"conditions": "post-emergence, Postemergence, scale 0 to 100, 0 no effect, 100 complete control, read-out: Plant response rating, Barnyardgrass"}, "[12]": {"conditions": "pre-emergence, Preemergence, scale 0 to 100 (0 no effect, 100 complete control), read-out: Plant response rating, Barnyardgrass"}, "[13]": {"conditions": "post-emergence, Postemergence, scale 0 to 100, 0 no effect, 100 complete control, read-out: Plant response rating, Ryegrass, Italian"}, "[14]": {"conditions": "pre-emergence, Preemergence, scale 0 to 100 (0 no effect, 100 complete control), read-out: Plant response rating, Ryegrass, Italian"}, "[15]": {"conditions": "post-emergence, Postemergence, scale 0 to 100, 0 no effect, 100 complete control, read-out: Plant response rating, Pigweed"}, "[16]": {"conditions": "pre-emergence, Preemergence, scale 0 to 100 (0 no effect, 100 complete control), read-out: Plant response rating, Pigweed"}, "[17]": {"conditions": "post-emergence, Postemergence, scale 0 to 100, 0 no effect, 100 complete control, read-out: Plant response rating, Soybean"}, "[18]": {"conditions": "pre-emergence, Preemergence, scale 0 to 100 (0 no effect, 100 complete control), read-out: Plant response rating, Soybean"}}, "note": "Where two headings read alike, the source gives them in different places."}
{"smiles": "Fc1cccc(Oc2ncc(Cl)cn2)c1-c1cc(C(F)(F)F)on1", "note": "[Compound 168, 5-chloro-2-[2-[5-(trifluoromethyl)-3-isoxazolyl]-3-fluorophenoxy]pyrimidine]", "values": [{"measurement": "pest or weed control at 16 g/ha", "setting": "[1]; 16 g ai/ha, scale 0 to 100 (0 no effect, 100 complete control), read-out: Chickweed plant response rating", "result": 65, "unit": "%"}, {"measurement": "pest or weed control at 31 g/ha", "setting": "[1]; 31 g ai/ha, scale 0 to 100 (0 no effect, 100 complete control), read-out: Chickweed plant response rating", "result": 98, "unit": "%"}, {"measurement": "pest or weed control at 62 g/ha", "setting": "[1]; 62 g ai/ha, scale 0 to 100, 0 no effect, 100 complete control, read-out: Plant response rating, Chickweed", "result": 100, "unit": "%"}, {"measurement": "pest or weed control at 125 g/ha", "setting": "[1]; 125 g ai/ha, scale 0 to 100, 0 no effect, 100 complete control, read-out: Plant response rating, Chickweed", "result": 100, "unit": "%"}, {"measurement": "pest or weed control at 31 g/ha", "setting": "[2]; post-emergence, Postemergence, scale 0 to 100 (0 no effect, 100 complete control), read-out: Nutsedge, Yellow plant response rating", "result": 5, "unit": "%"}, {"measurement": "pest or weed control at 62 g/ha", "setting": "[2]; [8]", "result": 10, "unit": "%"}, {"measurement": "pest or weed control at 125 g/ha", "setting": "[2]; [8]", "result": 15, "unit": "%"}, {"measurement": "pest or weed control at 125 g/ha", "setting": "[2]; pre-emergence, Preemergence, read-out: Plant response rating (scale 0 to 100), Nutsedge, Yellow", "result": 45, "unit": "%"}, {"measurement": "pest or weed control at 16 g/ha", "setting": "[2]; pre-emergence, Preemergence, 16 g ai/ha, scale 0 to 100 (0 no effect, 100 complete control), read-out: Plant response rating, Nutsedge, Yellow", "result": 5, "unit": "%"}, {"measurement": "pest or weed control at 31 g/ha", "setting": "[2]; [9]", "result": 5, "unit": "%"}, {"measurement": "pest or weed control at 62 g/ha", "setting": "[2]; [9]", "result": 15, "unit": "%"}, {"measurement": "pest or weed control at 16 g/ha", "setting": "[3]; [10]", "result": 5, "unit": "%"}, {"measurement": "pest or weed control at 31 g/ha", "setting": "[3]; [10]", "result": 5, "unit": "%"}, {"measurement": "pest or weed control at 62 g/ha", "setting": "[3]; [11]", "result": 10, "unit": "%"}, {"measurement": "pest or weed control at 125 g/ha", "setting": "[3]; [11]", "result": 75, "unit": "%"}, {"measurement": "pest or weed control at 125 g/ha", "setting": "[3]; pre-emergence, Preemergence, read-out: Plant response rating (scale 0 to 100), Barnyardgrass", "result": 100, "unit": "%"}, {"measurement": "pest or weed control at 16 g/ha", "setting": "[3]; [12]", "result": 35, "unit": "%"}, {"measurement": "pest or weed control at 31 g/ha", "setting": "[3]; [12]", "result": 75, "unit": "%"}, {"measurement": "pest or weed control at 62 g/ha", "setting": "[3]; [12]", "result": 100, "unit": "%"}, {"measurement": "pest or weed control at 31 g/ha", "setting": "[4]; post-emergence, Postemergence, scale 0 to 100 (0 no effect, 100 complete control), read-out: Ryegrass, Italian plant response rating", "result": 5, "unit": "%"}, {"measurement": "pest or weed control at 62 g/ha", "setting": "[4]; [13]", "result": 5, "unit": "%"}, {"measurement": "pest or weed control at 125 g/ha", "setting": "[4]; [13]", "result": 15, "unit": "%"}, {"measurement": "pest or weed control at 125 g/ha", "setting": "[4]; pre-emergence, Preemergence, read-out: Plant response rating (scale 0 to 100), Ryegrass, Italian", "result": 95, "unit": "%"}, {"measurement": "pest or weed control at 16 g/ha", "setting": "[4]; pre-emergence, Preemergence, 16 g ai/ha, scale 0 to 100 (0 no effect, 100 complete control), read-out: Plant response rating, Ryegrass, Italian", "result": 70, "unit": "%"}, {"measurement": "pest or weed control at 31 g/ha", "setting": "[4]; [14]", "result": 95, "unit": "%"}, {"measurement": "pest or weed control at 62 g/ha", "setting": "[4]; [14]", "result": 95, "unit": "%"}, {"measurement": "pest or weed control at 31 g/ha", "setting": "[5]; post-emergence, Postemergence, scale 0 to 100 (0 no effect, 100 complete control), read-out: Pigweed plant response rating", "result": 85, "unit": "%"}, {"measurement": "pest or weed control at 62 g/ha", "setting": "[5]; [15]", "result": 95, "unit": "%"}, {"measurement": "pest or weed control at 125 g/ha", "setting": "[5]; [15]", "result": 98, "unit": "%"}, {"measurement": "pest or weed control at 125 g/ha", "setting": "[5]; pre-emergence, Preemergence, read-out: Plant response rating (scale 0 to 100), Pigweed", "result": 100, "unit": "%"}, {"measurement": "pest or weed control at 16 g/ha", "setting": "[5]; pre-emergence, Preemergence, 16 g ai/ha, scale 0 to 100 (0 no effect, 100 complete control), read-out: Plant response rating, Pigweed", "result": 85, "unit": "%"}, {"measurement": "pest or weed control at 31 g/ha", "setting": "[5]; [16]", "result": 100, "unit": "%"}, {"measurement": "pest or weed control at 62 g/ha", "setting": "[5]; [16]", "result": 100, "unit": "%"}, {"measurement": "plant injury at 31 g/ha", "setting": "[6]; post-emergence, Postemergence, scale 0 to 100 (0 no effect, 100 complete control), read-out: Soybean plant response rating", "result": 75, "unit": "%"}, {"measurement": "plant injury at 62 g/ha", "setting": "[6]; [17]", "result": 40, "unit": "%"}, {"measurement": "plant injury at 125 g/ha", "setting": "[6]; [17]", "result": 90, "unit": "%"}, {"measurement": "plant injury at 125 g/ha", "setting": "[6]; pre-emergence, Preemergence, read-out: Plant response rating (scale 0 to 100), Soybean", "result": 85, "unit": "%"}, {"measurement": "plant injury at 16 g/ha", "setting": "[6]; pre-emergence, Preemergence, 16 g ai/ha, scale 0 to 100 (0 no effect, 100 complete control), read-out: Plant response rating, Soybean", "result": 5, "unit": "%"}, {"measurement": "plant injury at 31 g/ha", "setting": "[6]; [18]", "result": 30, "unit": "%"}, {"measurement": "plant injury at 62 g/ha", "setting": "[6]; [18]", "result": 55, "unit": "%"}, {"measurement": "pest or weed control at 31 g/ha", "setting": "[7]; post-emergence, Postemergence, 31 g ai/ha, scale 0 to 100 (0 no effect, 100 complete control), read-out: Waterhemp plant response rating", "result": 90, "unit": "%"}, {"measurement": "pest or weed control at 62 g/ha", "setting": "[7]; post-emergence, Postemergence, 62 g ai/ha, scale 0 to 100, 0 no effect, 100 complete control, read-out: Plant response rating, Waterhemp", "result": 98, "unit": "%"}, {"measurement": "pest or weed control at 125 g/ha", "setting": "[7]; post-emergence, Postemergence, scale 0 to 100, 0 no effect, 100 complete control, read-out: Plant response rating, Waterhemp", "result": 98, "unit": "%"}, {"measurement": "pest or weed control at 125 g/ha", "setting": "[7]; pre-emergence, Preemergence, read-out: Plant response rating (scale 0 to 100), Waterhemp", "result": 100, "unit": "%"}]}
